≈ marks a conversion by molar mass, not a printed value. Where two headings read alike, the source gives them in different places.
Tests used:
P. mirabilis 889 = assay: MIC against human bacteria in vitro; type: cell-based; conditions: Proteus mirabilis; P. mirabilis 889; 5% chocolated horse blood agar, 18 hours; read-out: MIC
[1] = system: Erysipelothrix rhusiopathiae NCTC 8163; assay: MIC against veterinary bacteria in vitro; conditions: Erysipelothrix rhusiopathiae, NCTC8163, 18 h
Experimental: (§1) The activity of the compounds of the Examples against various veterinarily important bacteria, was assayed in vitro using two-fold serial dilutions in Diagnostic Sensitivity Test Agar inoculated with 10^4 organisms.

M. hyorhinis ATCC 23234 = assay: MIC against mycoplasma in vitro; type: cell-based; conditions: Mesomycoplasma hyorhinis, ATCC23234, 144 h
M. suipneumoniae HK(2) = assay: MIC against mycoplasma in vitro; type: cell-based; conditions: Mesomycoplasma hyopneumoniae, 144 h
[2] = system: M. bovigenitalium ATCC 14173; assay: MIC against mycoplasma in vitro; type: cell-based; conditions: 144 h
Sarcina lutea 8340 = assay: MIC against human bacteria in vitro; type: cell-based; conditions: Micrococcus luteus; Sarcina lutea 8340; 5% chocolated horse blood agar, 18 hours; read-out: MIC
M. bovis NCTC 10131 = assay: microbe, parasite or virus in culture; type: cell-based; conditions: NCTC10131, 144 h
Strep. dysgalactiae SPD1 = assay: MIC against veterinary bacteria in vitro; conditions: Streptococcus dysgalactiae, SPD1, 18 h
Experimental: as §1

M. hyorhinis ATCC 25021 = assay: MIC against mycoplasma in vitro; type: cell-based; conditions: Mesomycoplasma hyorhinis, ATCC25021, 144 h
Bord. bronchiseptica B08 = assay: MIC against veterinary bacteria in vitro; conditions: Bordetella bronchiseptica, B08, 18 h
Experimental: as §1

Strep. agalactiae 2788-B = assay: MIC against human bacteria in vitro; type: cell-based; conditions: Streptococcus agalactiae; Strep. agalactiae 2788-B; 5% chocolated horse blood agar, 18 hours; read-out: MIC
Strep. faecalis I = assay: MIC against human bacteria in vitro; type: cell-based; conditions: Enterococcus faecalis; Strep. faecalis I; 5% chocolated horse blood agar, 18 hours; read-out: MIC
Staph. aureus Oxford [3] = assay: MIC against human bacteria in vitro; type: cell-based; conditions: Staphylococcus aureus; Staph. aureus Oxford; 5% chocolated horse blood agar, 18 hours; read-out: MIC
M. suipneumoniae UCD 1 = assay: MIC against mycoplasma in vitro; type: cell-based; conditions: Mesomycoplasma hyopneumoniae, UCD1, 144 h
M. suipneumoniae JF 435 = assay: MIC against mycoplasma in vitro; type: cell-based; conditions: Mesomycoplasma hyopneumoniae, JF435, 144 h
Staph. aureus Oxford [4] = assay: MIC against veterinary bacteria in vitro; conditions: Staphylococcus aureus, 18 h
Experimental: as §1

M. suipneumoniae NB12 = assay: MIC against mycoplasma in vitro; type: cell-based; conditions: Mesomycoplasma hyopneumoniae
[5] = system: Pasteurella multocida 1633; assay: MIC against human bacteria in vitro; type: cell-based; conditions: Pasteurella multocida 1633; 5% chocolated horse blood agar, 18 hours; read-out: MIC
Past. multocida PA2 = assay: MIC against veterinary bacteria in vitro; conditions: Pasteurella multocida, PA2, 18 h
Experimental: as §1

M. dispar NCTC 10125 = assay: MIC against mycoplasma in vitro; type: cell-based; conditions: 144 h
[6] = system: M. suipneumoniae PW/C/210; assay: MIC against mycoplasma in vitro; type: cell-based; conditions: Mesomycoplasma hyopneumoniae, 144 h
K. aerogenes A = assay: MIC against human bacteria in vitro; type: cell-based; conditions: Klebsiella aerogenes; K. aerogenes A; 5% chocolated horse blood agar, 18 hours; read-out: MIC
S. typhimurium S18 = assay: MIC against veterinary bacteria in vitro; conditions: Salmonella enterica, TYPHIMURIUM, 18 h
Experimental: as §1

M. suipneumoniae Str. 11 = assay: MIC against mycoplasma in vitro; type: cell-based; conditions: Mesomycoplasma hyopneumoniae
M. gallisepticum S6 = assay: MIC against mycoplasma in vitro; type: cell-based; conditions: Mycoplasmoides gallisepticum
[7] = system: Corynebacterium pyogenes CY1; assay: MIC against veterinary bacteria in vitro; conditions: CY1, 18 h
Experimental: as §1

M. suipneumoniae TAM 6N = assay: MIC against mycoplasma in vitro; type: cell-based; conditions: Mesomycoplasma hyopneumoniae, TAM6N, 144 h
[8] = system: Staph. aureus 152 (pen. sens); assay: MIC against veterinary bacteria in vitro; conditions: Staphylococcus aureus, 18 h
Experimental: as §1

Staph. aureus W2827 = assay: MIC against human bacteria in vitro; type: cell-based; conditions: Staphylococcus aureus; Staph. aureus W2827; 5% chocolated horse blood agar, 18 hours; read-out: MIC
[9] = system: Strep. suis (group D) SPS11; assay: MIC against veterinary bacteria in vitro; conditions: Streptococcus suis, 18 h
Experimental: as §1

[10] = system: M. suipneumoniae NCTC 10110; assay: MIC against mycoplasma in vitro; type: cell-based; conditions: Mesomycoplasma hyopneumoniae, NCTC10110, 144 h
M. suipneumoniae MS 16 = assay: MIC against mycoplasma in vitro; type: cell-based; conditions: Mesomycoplasma hyopneumoniae, MS16, 144 h
[11] = system: Staph. aureus B4 (pen. resistant); assay: MIC against veterinary bacteria in vitro; conditions: Staphylococcus aureus, 18 h
Experimental: as §1

[12] = system: M. suipneumoniae J2206/183^b; assay: MIC against mycoplasma in vitro; type: cell-based; conditions: Mesomycoplasma hyopneumoniae, 144 h
[13] = 144 h, M. suipneumoniae Str. 11, 6 days, 37° C., read-out: MIC

Compound | MIC (P. mirabilis 889) [µg/mL] | MIC [1] [µg/mL] | MIC (M. hyorhinis ATCC 23234) [µg/mL] | MIC [2] [µg/mL] | MIC (Sarcina lutea 8340) [µg/mL] | MIC (M. bovis NCTC 10131) [µg/mL] | MIC (Strep. dysgalactiae SPD1) [µg/mL] | MIC (Bord. bronchiseptica B08) [µg/mL] | MIC (Strep. agalactiae 2788-B) [µg/mL] | MIC (Strep. faecalis I) [µg/mL] | MIC (Staph. aureus Oxford [3]) [µg/mL] | MIC (M. suipneumoniae UCD 1) [µg/mL] | MIC (Staph. aureus Oxford [4]) [µg/mL] | MIC [5] [µg/mL] | MIC (Past. multocida PA2) [µg/mL] | MIC (M. dispar NCTC 10125) [µg/mL] | MIC (K. aerogenes A) [µg/mL] | MIC (S. typhimurium S18) [µg/mL] | MIC [7] [µg/mL] | MIC [8] [µg/mL] | also measured
C/C(=C\c1ncc(-c2ccc(S(=O)(=O)N(C)C)cc2)o1)C[C@@H]1OC[C@H](C[C@@H]2O[C@H]2[C@@H](C)[C@H](C)O)[C@@H](O)[C@H]1O [Example 24, 5-p-Dimethylaminosulphonylphenyl-2-(1-normon-2-yl)oxazole A] | > 64 | 40 (≈ 72.6 µM) | 0.1 (≈ 0.182 µM) | 0.1 (≈ 0.182 µM) | > 128 | 0.025 (≈ 0.0454 µM) | 0.625 (≈ 1.13 µM) | 80 (≈ 145 µM) | 2 (≈ 3.63 µM) | > 128 | 4 (≈ 7.26 µM) | 0.25 (≈ 0.454 µM) | 1.25 (≈ 2.27 µM) | 16 (≈ 29.1 µM) | 2.5 (≈ 4.54 µM) | 0.1 (≈ 0.182 µM) | > 64 | > 80 | 80 (≈ 145 µM) | 0.625 (≈ 1.13 µM) | MIC (M. suipneumoniae HK(2)): 0.25 µg/mL (≈ 0.454 µM); MIC (M. hyorhinis ATCC 25021): 0.1 µg/mL (≈ 0.182 µM); MIC (M. suipneumoniae JF 435): 0.25 µg/mL (≈ 0.454 µM); MIC (M. suipneumoniae NB12; 144 h, M. suipneumoniae NB12, Friis broth, 0.9% agarose, 6 days, 37° C., read-out: MIC): 0.1 µg/mL (≈ 0.182 µM); MIC ([6]; M. suipneumoniae PW/C/210, 6 days, 37° C., read-out: MIC): 0.1 µg/mL (≈ 0.182 µM); MIC (M. suipneumoniae Str. 11; [13]): 0.1 µg/mL (≈ 0.182 µM); MIC (M. gallisepticum S6; 144 h, M. gallisepticum S6, 6 days, 37° C., read-out: MIC): 0.5 µg/mL (≈ 0.908 µM); MIC (M. suipneumoniae TAM 6N): 0.25 µg/mL (≈ 0.454 µM); MIC (Staph. aureus W2827): 4 µg/mL (≈ 7.26 µM); MIC [9]: 2.5 µg/mL (≈ 4.54 µM); MIC [10]: 0.25 µg/mL (≈ 0.454 µM); MIC (M. suipneumoniae MS 16; M. suipneumoniae MS 16, 6 days, 37° C., read-out: MIC): 0.1 µg/mL (≈ 0.182 µM); MIC [11]: 1.25 µg/mL (≈ 2.27 µM); MIC [12]: 0.25 µg/mL (≈ 0.454 µM)
C/C(=C\c1ncc(-c2cccc([S+](C)[O-])c2)o1)C[C@@H]1OC[C@H](C[C@@H]2O[C@H]2[C@@H](C)[C@H](C)O)[C@@H](O)[C@H]1O (stereo partly drawn) [Example 25, 5-m-Methylsulphinylphenyl-2-(1-normon-2-yl)oxazole A] | > 128 | > 80 | 1 (≈ 1.98 µM) | 0.25 (≈ 0.494 µM) | 128 (≈ 253 µM) | 0.025 (≈ 0.0494 µM) | 1.25 (≈ 2.47 µM) | > 80 | 2 (≈ 3.96 µM) | > 128 | 4 (≈ 7.91 µM) | 1 (≈ 1.98 µM) | 20 (≈ 39.6 µM) | 16 (≈ 31.6 µM) | 2.5 (≈ 4.94 µM) | 0.25 (≈ 0.494 µM) | > 128 | > 80 | > 80 | 10 (≈ 19.8 µM) | MIC (M. suipneumoniae HK(2)): 1 µg/mL (≈ 1.98 µM); MIC (M. hyorhinis ATCC 25021; M. hyorhinis ATCC 25021, 6 days, 37° C., read-out: MIC): 0.5 µg/mL (≈ 0.989 µM); MIC (M. suipneumoniae JF 435; M. suipneumoniae JF 435, 6 days, 37° C., read-out: MIC): 0.5 µg/mL (≈ 0.989 µM); MIC (M. suipneumoniae NB12; NB12, 144 h): 0.25 µg/mL (≈ 0.494 µM); MIC [6]: 0.25 µg/mL (≈ 0.494 µM); MIC (M. suipneumoniae Str. 11; [13]): 0.5 µg/mL (≈ 0.989 µM); MIC (M. gallisepticum S6; S6, 144 h): 2.5 µg/mL (≈ 4.94 µM); MIC (M. suipneumoniae TAM 6N): 1 µg/mL (≈ 1.98 µM); MIC (Staph. aureus W2827): 32 µg/mL (≈ 63.3 µM); MIC [9]: 20 µg/mL (≈ 39.6 µM); MIC [10]: 1 µg/mL (≈ 1.98 µM); MIC (M. suipneumoniae MS 16): 0.25 µg/mL (≈ 0.494 µM); MIC [11]: 10 µg/mL (≈ 19.8 µM); MIC [12]: 1 µg/mL (≈ 1.98 µM)
C/C(=C\c1ncc(-c2ccccc2[N+](=O)[O-])o1)C[C@@H]1OC[C@H](C[C@@H]2O[C@H]2[C@@H](C)[C@H](C)O)[C@@H](O)[C@H]1O [Example 26, 5-o-Nitrophenyl-2-(1-normon-2-yl)oxazole A] | > 128 | > 80 | 2.5 (≈ 5.12 µM) | 0.25 (≈ 0.512 µM) | > 128 | 0.025 (≈ 0.0512 µM) | 0.625 (≈ 1.28 µM) | 80 (≈ 164 µM) | 2 (≈ 4.09 µM) | > 128 | 4 (≈ 8.19 µM) | 2.5 (≈ 5.12 µM) | 2.5 (≈ 5.12 µM) | 16 (≈ 32.8 µM) | 5 (≈ 10.2 µM) | 1 (≈ 2.05 µM) | > 128 | > 80 | > 80 | 2.5 (≈ 5.12 µM) | MIC (M. suipneumoniae HK(2); M. suipneumoniae HK(2), 6 days, 37° C., read-out: MIC): 5 µg/mL (≈ 10.2 µM); MIC (M. hyorhinis ATCC 25021): 2.5 µg/mL (≈ 5.12 µM); MIC (M. suipneumoniae JF 435): 2.5 µg/mL (≈ 5.12 µM); MIC (M. suipneumoniae NB12; NB12, 144 h): 2.5 µg/mL (≈ 5.12 µM); MIC [6]: 1 µg/mL (≈ 2.05 µM); MIC (M. suipneumoniae Str. 11; STR.11, 144 h): 2.5 µg/mL (≈ 5.12 µM); MIC (M. gallisepticum S6; S6, 144 h): 2.5 µg/mL (≈ 5.12 µM); MIC (M. suipneumoniae TAM 6N; M. suipneumoniae TAM 6N, 6 days, 37° C., read-out: MIC): 5 µg/mL (≈ 10.2 µM); MIC (Staph. aureus W2827): 4 µg/mL (≈ 8.19 µM); MIC [9]: 10 µg/mL (≈ 20.5 µM); MIC ([10]; M. suipneumoniae NCTC 10110, 6 days, 37° C., read-out: MIC): 5 µg/mL (≈ 10.2 µM); MIC (M. suipneumoniae MS 16): 1 µg/mL (≈ 2.05 µM); MIC [11]: 2.5 µg/mL (≈ 5.12 µM); MIC ([12]; M. suipneumoniae J2206/183^b, 6 days, 37° C., read-out: MIC): 5 µg/mL (≈ 10.2 µM)

Reference: patent US5041567A, “Antibacterial monic acid derivatives” (Beecham Group plc, priority 1982, dated 1991)
